In ChEMBL document CHEMBL4229572, “VU6007477, a Novel M1 PAM Based on a Pyrrolo[2,3-b]pyridine Carboxamide Core Devoid of Cholinergic Adverse Events” (ACS Med Chem Lett, 2018):
Residue numbers refer to the chain shown, from its start. Active and inactive are the calls of the source. No cut-off for these calls is given here.

Columns and labels:
[1] = Protein binding in human plasma assessed as unbound fraction at 5 uL measured after 4 hrs by LC-MS/MS based equilibrium dialysis method; type: ADME, cell-free
[2] = target: T1, Muscarinic acetylcholine receptor M1 (Rattus norvegicus, UniProt P08482); experiment: (§1) Agonist activity at rat M1 receptor expressed in CHO cells assessed as increase in calcium mobilization measured after 2.5 mins by Fluo-4-AM dye based assay; type: functional, cell-based
T1 sequence (P08482 whole entry): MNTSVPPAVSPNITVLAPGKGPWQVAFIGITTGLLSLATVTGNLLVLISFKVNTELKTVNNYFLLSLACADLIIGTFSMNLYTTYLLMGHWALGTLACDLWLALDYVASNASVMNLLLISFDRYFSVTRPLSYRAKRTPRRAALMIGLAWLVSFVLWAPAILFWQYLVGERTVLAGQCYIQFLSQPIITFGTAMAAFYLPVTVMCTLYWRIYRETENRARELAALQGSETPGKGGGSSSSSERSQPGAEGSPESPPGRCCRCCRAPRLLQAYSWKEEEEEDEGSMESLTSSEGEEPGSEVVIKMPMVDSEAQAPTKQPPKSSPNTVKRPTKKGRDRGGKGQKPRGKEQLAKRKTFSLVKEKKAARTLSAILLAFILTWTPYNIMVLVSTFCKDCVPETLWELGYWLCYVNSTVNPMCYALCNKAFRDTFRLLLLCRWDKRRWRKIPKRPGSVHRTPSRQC

[3] = target: T2, Muscarinic acetylcholine receptor M1 (Rattus norvegicus) (UniProt P08482); experiment: as §1; type: functional, cell-based
T2 sequence (whole entry): T1 sequence (P08482 whole entry)

[4] = Ratio of unbound brain to plasma concentration in C57BL/6J mouse at 100 mg/kg, ip after 1 hr by LC-MS/MS analysis; type: ADME, organism-based; conditions: brain and plasma, read-out: K(p,uu,brain)
[5] = Ratio of unbound brain to plasma concentration in cannulated Sprague-Dawley rat at 0.2 mg/kg, iv administered via jugular vein as cassette dose measured after 0.25 hrs by LC-MS/MS analysis; type: ADME, organism-based; conditions: for K(p,uu,brain): 0.25 h, BLD = below limit of detection; for Kp uu at 0.25 h: Sprague-Dawley, brain and plasma, read-out: K(p,uu,brain)
Mus musculus = experiment: Cholinergic toxicity in C57BL/6J mouse assessed as induction of seizure activity at 100 mg/kg, ip measured within 30 mins; type: organism-based; conditions: in vivo, 0.5 h
[6] = Protein binding in rat plasma assessed as unbound fraction at 5 uL measured after 4 hrs by LC-MS/MS based equilibrium dialysis method; type: ADME, cell-free
[7] = Protein binding in rat brain assessed as unbound fraction; type: ADME, tissue-based
[8] = target: T1, Muscarinic acetylcholine receptor M1; experiment: (§2) Positive allosteric modulation of rat M1 receptor expressed in CHO cells assessed as increase in acetylcholine-induced calcium mobilization pretreated for 2.5 mins followed by acetylcholine addition and measured after 1 min by Fluo-4-AM dye based assay; type: functional, cell-based
[9] = target: T2, Muscarinic acetylcholine receptor M1 (Rattus norvegicus); experiment: as §2; type: functional, cell-based
[10] = Total brain to plasma partition coefficient, Kp in C57BL/6J mouse at 100 mg/kg, ip after 1 hr by LC-MS/MS analysis; type: ADME, organism-based; conditions: brain and plasma
[11] = Total brain to plasma partition coefficient, Kp in cannulated Sprague-Dawley rat at 0.2 mg/kg, iv administered via jugular vein as cassette dose measured after 0.25 hrs by LC-MS/MS analysis; type: ADME, organism-based; conditions: for Kp: brain, 0.25 h, BLD = below limit of detection; for Kp at 0.25 h: Sprague-Dawley, brain and plasma
[12] = target: T3, Muscarinic acetylcholine receptor M1 (Homo sapiens, UniProt P11229); experiment: Agonist activity at human M1 receptor expressed in CHO cells assessed as increase in calcium mobilization measured after 2.5 mins by Fluo-4-AM dye based assay; type: functional, cell-based
T3 sequence (P11229 whole entry): T1 sequence (P08482 whole entry) with V5A, S254T, S309P, K320R, G337A, V413I

[13] = target: T3, Muscarinic acetylcholine receptor M1; experiment: (§3) Positive allosteric modulation of human M1 receptor expressed in CHO cells assessed as increase in acetylcholine-induced calcium mobilization pretreated for 2.5 mins followed by acetylcholine addition and measured after 1 min by Fluo-4-AM dye based assay; type: functional, cell-based
[14] = target: T4, Muscarinic acetylcholine receptor M1 (Homo sapiens) (UniProt P11229); experiment: as §3; type: functional, cell-based
T4 sequence (whole entry): T1 sequence (P08482 whole entry) with V5A, S254T, S309P, K320R, G337A, V413I

| Structure (SMILES) | EC50 ([2]; read-out: EC50) | %max [3] | EC50 ([8]; read-out: EC50) | %max [9] | EC50 ([2]; read-out: pEC50 (converted)) | further results |
| --- | --- | --- | --- | --- | --- | --- |
| Cn1cc(-c2ccc(Cc3cc(C(=O)N[C@@H]4CCCC[C@H]4O)nc4c3ccn4C)cn2)cn1 | 1210 nM | 58% | 40 nM | 89% |  | fraction unbound at 4 h, 5 uL [1]: 0.04; Kp uu at 1 h [4]: 0.04; K(p,uu,brain) [5]: Bld; Activity (Mus musculus): Toxic; fraction unbound at 4 h, 5 uL [6]: 0.06; fraction unbound [7]: 0.07; Kp at 1 h [10]: 0.03; Kp [11]: Bld |
| Cn1ccc(-c2ccc(Cc3cc(C(=O)N[C@@H]4CCCC[C@H]4O)nc4c3ccn4C)cn2)n1 | 2290 nM | 53% | 90 to 100 nM | 87% |  | EC50 [12]: 123 nM; fraction unbound at 4 h, 5 uL [1]: 0.12; EC50 [13]: 120 nM; %max [14]: 79%; Kp uu at 1 h [4]: 0.17; K(p,uu,brain) [5]: Bld; Activity (Mus musculus): Toxic; fraction unbound at 4 h, 5 uL [6]: 0.03; fraction unbound [7]: 0.04; EC50 ([8]; read-out: pEC50 (converted)): 95.5 nM; Kp at 1 h [10]: 0.28; Kp [11]: Bld |
| Cn1ccc2c(Cc3ccc(-c4nccs4)cc3)cc(C(=O)N[C@@H]3CCCC[C@H]3O)nc21 | > 30000 nM |  | 360 nM | 91% | > 31600 nM |  |
| Cn1ccc(-c2ccc(Cc3cc(C(=O)N[C@@H]4CCC[C@H]4O)nc4c3ccn4C)cn2)n1 |  |  | 260 nM | 86% | > 10000 nM | EC50 ([2]; cho, read-out: EC50): > 10000 nM |
| Cn1cc(-c2ccc(Cn3cc(C(=O)N[C@H]4CCCC[C@@H]4O)c4c(F)cc(F)cc43)cn2)cn1 |  |  |  |  |  | Activity [9]: inactive |
| Cn1ccc(-c2ccc(Cc3cc(C(=O)NC4CC5(COC5)C4)nc4c3ccn4C)cn2)n1 | > 30000 nM |  | 570 nM | 89% | > 31600 nM |  |
| Cn1ccc(-c2ccc(Cc3cc(C(=O)N[C@@H]4CCOC[C@H]4O)nc4c3ccn4C)cn2)n1 | 575 nM | 67% | 14 nM | 86% |  |  |
| Cn1ccc(-c2ccc(Cc3cc(C(=O)NC[C@@H]4CCCO4)nc4c3ccn4C)cn2)n1 |  |  | 490 nM | 84% | > 10000 nM | EC50 ([2]; cho, read-out: EC50): > 10000 nM |
| Cn1ccc(-c2ccc(Cc3cc(C(=O)NC4CCOC(C)(C)C4)nc4c3ccn4C)cn2)n1 (centres undefined) |  |  | 550 nM | 94% | > 10000 nM | EC50 ([2]; cho, read-out: EC50): > 10000 nM |
| O=C(N[C@H]1CCCC[C@@H]1O)C1CN(Cc2ccc(-n3cccn3)cc2)c2ccccc2O1 (some centres undefined) |  |  |  |  |  | Activity [9]: inactive |

The next lines start with results.

| EC50 ([2]; read-out: EC50) | %max [3] | EC50 ([8]; read-out: EC50) | %max [9] | EC50 ([2]; read-out: pEC50 (converted)) | Structure (SMILES) | further results |
| --- | --- | --- | --- | --- | --- | --- |
|  |  | 760 nM | 88% | > 10000 nM | Cc1nc(-c2ccc(Cc3cc(C(=O)NC4CCOCC4)nc4c3ccn4C)cc2)co1 | EC50 ([2]; cho, read-out: EC50): > 10000 nM |
| 3240 nM | 41% | 180 nM | 87% |  | Cn1ccc(-c2ccc(Cc3cc(C(=O)N[C@@H]4CCCC[C@H]4O)nc4c3ccn4C)cc2)n1 | EC50 [12]: 182 nM; EC50 [13]: 180 nM; %max [14]: 84% |
| 2240 nM | 65% | 40 nM | 87% |  | Cn1ccc(-c2ccc(Cc3cc(C(=O)N[C@@H]4CCOC[C@H]4O)nc4c3ccn4C)cc2)n1 | EC50 [12]: 60.3 nM; fraction unbound at 4 h, 5 uL [1]: 0.02; EC50 [13]: 60 nM; %max [14]: 83%; Kp uu at 1 h [4]: 0.04; Kp uu at 0.25 h [5]: 0.05; Activity (Mus musculus): Toxic; fraction unbound at 4 h, 5 uL [6]: 0.03; fraction unbound [7]: 0.01; Kp at 1 h [10]: 0.09; Kp at 0.25 h [11]: 0.11 |
| > 30000 nM |  | 760 nM | 86% | > 31600 nM | Cn1ccc2c(Cc3ccc(-c4cscn4)cc3)cc(C(=O)NC3CCOCC3)nc21 |  |
| > 30000 nM |  | 1740 nM | 78% | > 31600 nM | Cn1ccc2c(Cc3ccc(-c4nccs4)cc3)cc(C(=O)NC3CCOCC3)nc21 |  |
|  | 26% | 490 nM | 87% | > 10000 nM | Cn1ccc2c(Cc3ccc(-n4cccn4)cc3)cc(C(=O)NC3CCOCC3)nc21 | EC50 ([2]; cho, read-out: EC50): > 10000 nM |
| 5620 nM | 41% | 100 nM | 90% |  | Cn1ccc2c(Cc3ccc(-c4nccs4)cc3)cc(C(=O)N[C@@H]3CCOC[C@H]3O)nc21 | EC50 [12]: 89.1 nM; fraction unbound at 4 h, 5 uL [1]: 0.02; EC50 [13]: 90 nM; %max [14]: 80%; Kp uu at 0.25 h [5]: 0.13; Activity (Mus musculus): Toxic; fraction unbound at 4 h, 5 uL [6]: 0.02; fraction unbound [7]: 0.01; Kp at 0.25 h [11]: 0.21 |
| > 30000 nM |  | 1580 nM | 87% | > 31600 nM | Cn1ccc(-c2ccc(Cc3cc(C(=O)NCC4CCOCC4)nc4c3ccn4C)cn2)n1 |  |
| > 10000 nM |  | 560 nM | 89% |  | Cn1ccc(-c2ccc(Cc3cc(C(=O)NC4CCOCC4)nc4c3ccn4C)cc2)n1 | EC50 [12]: 661 nM; fraction unbound at 4 h, 5 uL [1]: 0.02; EC50 [13]: 660 nM; %max [14]: 87%; K(p,uu,brain) [5]: Bld; fraction unbound at 4 h, 5 uL [6]: 0.04; fraction unbound [7]: 0.01; Kp [11]: Bld |
| > 10000 nM |  | 604 nM | 91% |  | Cn1ccc(-c2ccc(Cc3cc(C(=O)NC4CC5(COC5)C4)nc4c3ccn4C)cc2)n1 |  |
|  | 34% | 760 nM | 90% | > 10000 nM | Cn1ccc(-c2ccc(Cc3cc(C(=O)NC4CCOCC4)nc4c3ccn4C)cn2)n1 | EC50 ([2]; cho, read-out: EC50): > 10000 nM |
